{"source": "patent US10844023B2", "about": "(Washington University, priority 2017, dated 2020)", "system": "Mfn2 null MEFs", "assay": "Mitochondrial elongation (aspect ratio) fusogenicity assay", "format": "cell-based, mouse", "design": "% long compare to B: dose or concentration left out as unconfirmed", "settings": "for Aspect ratio (MEAN ± SEM) / % long compare to B: Mfn2 null MEFs; for Aspect ratio (MEAN ± SEM): overnight, treatment with 1 μM compound (footnote); for Fusogenicity Rank: rank order of aspect ratio among 44 soluble library compounds; for % long compare to B: mitochondrial elongation relative to Cpd B (B01 = 100), compound overnight as printed (FIG. 48)", "description": "A cultured murine embryonic fibroblast assay system was used in which mitochondrial elongation (an increase in aspect ratio) reflects enhanced mitochondrial fusion.\nA pharmacophore model was generated based on the interactions of HR1 and HR2 domains in the calculated structural model of Mfn2 in the closed conformation. The key features included hydrophobic interactions involving Mfn2 HR1: Val372 and Met376, and aromatic interactions and hydrogen bonding involving Mfn2 HR1 His380. […] A library comprising ˜14 million commercially available compounds was prepared in silico and evaluated using PHASE to fit these criteria. Top ranked hits were clustered, and filtered based on pharmacological properties using Qikprop. The top 55 (see TABLE 4) commercially available small molecules conforming to the model were selected for functional screening and purchased in 1 mg aliquots. […] Images were acquired by confocal microscopy. Each compound was scored for fusogenicity (see e.g., FIG. 24A) and % cell death (see e.g., FIG. 24B).\nCells were excited with 408 nm (Hoechst), […] (MitoTracker Green and Calcein AM, GFP), or 637 nm (TMRE, MitoTracker Orange, Ethidium homodimer-1, and AF594-Dextran) laser diodes. For mitochondrial elongation studies mitochondrial aspect ratio (long axis/short axis) was calculated using automated edge detection and Image J software. Mitochondrial depolarization was calculated as % of green mitochondria visualized on MitoTracker Green and TMRE merged images, expressed as green/(green+yellow mitochondria)×100."}
{"smiles": "O=C1CC(SCCc2nc3ccccc3[nH]2)C(=O)N1c1cccc(F)c1", "note": "(centres unmarked) [drawing 199, 3-{[2-(1H-1,3-benzodiazol-2-yl)ethyl]sulfanyl}-1-(3-fluorophenyl)pyrrolidine-2,5-dione]", "values": [{"measurement": "Aspect ratio (MEAN ± SEM)", "result": "6.9 ± 0.8"}, {"measurement": "Fusogenicity Rank", "result": 3}]}
{"smiles": "Cc1ccc(N2C[C@@H]3CC[C@H](C2)N(Cc2ccccn2)C3=O)nn1", "note": "[D12, (1S,5R)-3-(6-methylpyridazin-3-yl)-6-[(pyridin-2-yl)methyl)-3,6-diazabicyclo[3.2.2] nonan-7-one]", "values": [{"measurement": "% long compare to B", "result": "−4", "unit": "%"}]}
{"smiles": "CC(Sc1nnc(N2CCCCC2)n1-c1ccccc1)C(=O)Nc1sc2c(c1C(N)=O)CCC2", "note": "(centres unmarked) [1-A12, 2-(2-{[4-phenyl-5-(piperidin-1-yl)-4H-1,2,4-triazol-3-yl]sul-fanyl]propanamido)-4H,5H,6H-cyclopenta[b]thiophene-3-carboxamide]", "values": [{"measurement": "% long compare to B", "result": "−8", "unit": "%"}]}
{"smiles": "CC(Sc1nc(CN2CCOCC2)nc2ccccc12)C(=O)Nc1cccc(C(F)(F)F)c1", "note": "(centres unmarked) [drawing 227, 2-({2-[(morpholin-4-yl)methyl]quinazolin-4-yl}sulfanyl)-N-[3-(trifluoromethyl)phenyl]propanamide]", "values": [{"measurement": "Aspect ratio (MEAN ± SEM)", "result": "5.6 ± 0.6"}, {"measurement": "Fusogenicity Rank", "result": 7}]}
{"smiles": "CC(Sc1nnc(N2CCOCC2)n1Cc1ccccc1)C(=O)Nc1ccc2c(c1)OCO2", "note": "(centres unmarked) [drawing 242, N-(2H-1,3-benzodioxol-5-yl)-2-{[4-benzyl-5-(morpholin-4-yl)-4H-1,2,4-triazol-3-yl]sulfanyl}propanamide]", "values": [{"measurement": "Aspect ratio (MEAN ± SEM)", "result": "2.5 ± 0.6"}, {"measurement": "Fusogenicity Rank", "result": 43}]}
{"smiles": "CC(Sc1nccn1-c1cccc(F)c1)C(=O)Nc1sc2c(c1C(N)=O)CCC2", "note": "(centres unmarked) [1-E8, 2-(2-{[1-(3-fluorophenyl)-1H-imidazol-2-yl]sulfanyl}pro-panamido)-4H,5H,6H-cyclo-penta[b]thiophene-3-carboxamide]", "values": [{"measurement": "% long compare to B", "result": 5, "unit": "%"}]}
{"smiles": "CC(/N=N/C(=N)SC1CC(=O)N(c2cccc(C(=O)O)c2)C1=O)c1ccccc1", "note": "(centres unmarked) [drawing 247, 3-(2,5-dioxo-3-{[(E)-N-[(1-phenylethyl)imino]carbamimidoyl]sulfanyl}pyrrolidin-1-yl)benzoic acid]", "values": [{"measurement": "Aspect ratio (MEAN ± SEM)", "result": "3.3 ± 0.0"}, {"measurement": "Fusogenicity Rank", "result": 31}]}
{"smiles": "CCOC(=O)c1sc(NC(=O)C(CC)Sc2nnc3c(n2)[nH]c2ccccc23)nc1C", "note": "(centres unmarked) [drawing 203, ethyl 4-methyl-2-(2-{5H-[1,2,4]triazino[5,6-b]indol-3-ylsulfanyl}butanamido)-1,3-thiazole-5-carboxylate]", "values": [{"measurement": "Aspect ratio (MEAN ± SEM)", "result": "4.5 ± 0.5"}, {"measurement": "Fusogenicity Rank", "result": 13}]}
{"smiles": "CC(Sc1nnc(-c2ccco2)n1-c1ccccc1)C(=O)Nc1sc2c(c1C(N)=O)CCC2", "note": "(centres unmarked) [1-06, 2-(2-{[5-(furan-2-yl)-4-phenyl-4H-1,2,4-triazol-3-yl]sulfanyl}propana-mido)-4H,5H,6H-cyclopenta[b]thiophene-3-carboxamide]", "values": [{"measurement": "% long compare to B", "result": 10, "unit": "%"}]}
{"smiles": "S=C(NCCSCc1ccco1)NC1CC2CCC1C2", "note": "(centres unmarked) [drawing 225, 1-{bicyclo[2.2.1]heptan-2-yl}-3-(2-{[(furan-2-yl)methyl]sulfanyl}ethyl)thiourea]", "values": [{"measurement": "Aspect ratio (MEAN ± SEM)", "result": "3.7 ± 0.9"}, {"measurement": "Fusogenicity Rank", "result": 23}]}
{"smiles": "CC(Sc1nnc(C2CC2)n1Cc1ccccc1)C(=O)Nc1sc2c(c1C(N)=O)CCC2", "note": "(centres unmarked) [1-C7, 2-{2-[(4-benzyl-5-cyclopropyl-4H-1,2,4-triazol-3-yl)sulfanyl]-propanamido}-4H,5H,6H-cyclopenta[b]thiophene-3-carboxamide]", "values": [{"measurement": "% long compare to B", "result": "−9", "unit": "%"}]}
{"smiles": "N#Cc1c(NC(=O)CSc2nnc(C3CC3)n2-c2ccccc2)sc2c1CCCC2", "note": "[1-C1, N-(3-cyano-4,5,6,7-tetrahydro-1-benzothiophen-2-yl)-2-[(5-cyclopropyl-4-phenyl-4H-1,2,4-triazol-3-yl)sulfanyl]acetamide]", "values": [{"measurement": "% long compare to B", "result": 19, "unit": "%"}]}
{"smiles": "CC1CCc2c(sc(NC(=O)CSc3nnc4n3CCCCC4)c2C(N)=O)C1", "note": "(centres unmarked) [1-A4, 6-methyl-2-(2-{5H,6H,7H,8H,9H-[1,2,4]triazolo[4,3-a]azepin-3-ylsulfanyl}acetamido)-4,5,6,7-tetrahydro-1-benzothiophene-3-carboxamide]", "values": [{"measurement": "% long compare to B", "result": 2, "unit": "%"}]}
{"smiles": "CC(/N=N/C(=N)SC1CC(=O)N(c2cccc(C(=O)O)c2)C1=O)c1ccccc1", "note": "(centres unmarked) [C10, 3-(2,5-dioxo-3-{[(E)-N-[(1-phenylethyl)imino]car-bamimidoyl]sul-fanyl}pyrrolidin-1-yl)benzoic acid]", "values": [{"measurement": "% long compare to B", "result": 0, "unit": "%"}]}
{"smiles": "Cc1ccccc1-n1c(SCC(=O)Nc2sc3c(c2C(N)=O)CCC3)nnc1-c1cccnc1", "note": "[1-G1, 2-(2-{[4-(2-methylphenyl)-5-(pyridin-3-yl)-4H-1,2,4-triazol-3-yl]sulfanyl}acet-amido)-4H,5H,6H-cyclopenta[b]thiophene-3-carboxamide]", "values": [{"measurement": "% long compare to B", "result": 141, "unit": "%"}]}
{"smiles": "CCC(c1nnc(SCC(=O)Nc2sc3c(c2C(N)=O)CCC3)n1Cc1ccccc1)N(C)C", "note": "(centres unmarked) [1-D1, 2-[2-({4-benzyl-5-[1-(dimethyl-amino)propyl]-4H-1,2,4-triazol-3-yl}sulfanyl)acetamido]-4H,5H,6H-cyclopenta[b]thio-phene-3-carboxamide]", "values": [{"measurement": "% long compare to B", "result": 23, "unit": "%"}]}
{"smiles": "O=C(NCCSCc1cccc(Cl)c1)C1CCCCn2nnnc21", "note": "(centres unmarked) [D07, N-(2-{[(3-chlorophenyl)methyl]-sulfanyl}ethyl)-5H,6H,7H,8H,9H-[1,2,3,4]tetrazolo[1,5-a]azepine-9-carboxamide]", "values": [{"measurement": "% long compare to B", "result": "−6", "unit": "%"}]}
{"smiles": "Cc1ccc(C(=O)C(C)Sc2nnc3c(=O)n(-c4ccc(C)c(C)c4)ccn23)cc1C", "note": "(centres unmarked) [drawing 240, 7-(3,4-dimethylphenyl)-3-{[1-(3,4-dimethylphenyl)-1-oxopropan-2-yl]sulfanyl}-7H,8H-[1,2,4]triazolo[4,3-a]pyrazin-8-one]", "values": [{"measurement": "Aspect ratio (MEAN ± SEM)", "result": "3.9 ± 0.8"}, {"measurement": "Fusogenicity Rank", "result": 19}]}
{"smiles": "CC1CCc2c(sc(NC(=O)CSc3nnc(C4CC4)n3C)c2C(N)=O)C1", "note": "(centres unmarked) [1-A11, 2-{2-[(5-cyclopropyl-4-methyl-4H-1,2,4-triazol-3-yl)sulfanyl]acetamido}-6-methyl-4,5,6,7-tetrahydro-1-benzothiophene-3-carboxamide]", "values": [{"measurement": "% long compare to B", "result": 6, "unit": "%"}]}
{"smiles": "O=C(NCCSCc1ccccc1)C1CCCCO1", "note": "(centres unmarked) [E05, N-[2-(benzyl-sulfanyl)ethyl]oxane-2-carboxamide]", "values": [{"measurement": "% long compare to B", "result": 1, "unit": "%"}]}
{"smiles": "CC(Sc1nnc(-c2ccccc2)n1-c1ccccc1)C(=O)Nc1sc2c(c1C(N)=O)CCC2", "note": "(centres unmarked) [1-H8, 2-{2-[(diphenyl-4H-1,2,4-triazol-3-yl)sulfanyl]propan-amido}-4H,5H,6H-cyclo-penta[b]thiophene-3-carboxamide]", "values": [{"measurement": "% long compare to B", "result": "−4", "unit": "%"}]}
{"smiles": "CC(Sc1nnc(-c2cccnc2)n1Cc1ccco1)C(=O)Nc1sc2c(c1C(N)=O)CCC2", "note": "(centres unmarked) [1-F10, 2-[2-({4-[(furan-2-yl)methyl]-5-(pyridin-3-yl)-4H-1,2,4-triazol-3-yl}sulfanyl)propanamido]-4H,5H,6H-cyclopenta[b]-thiophene-3-carboxamide]", "values": [{"measurement": "% long compare to B", "result": 29, "unit": "%"}]}
{"smiles": "COC(=O)c1c(NC(=O)CSc2nnc(C)n2-c2ccccc2)sc2c1CCC2", "note": "[1-C10, methyl 2-{2-[(5-methyl-4-phenyl-4H-1,2,4-triazol-3-yl)sulfanyl]acetamido}-4H,5H,6H-cyclopenta[b]thiophene-3-carboxylate]", "values": [{"measurement": "% long compare to B", "result": 39, "unit": "%"}]}
{"smiles": "O=C(CSCC(=O)N1CCCc2ccccc21)Nc1ccccc1", "note": "[D03, 2-{[2-oxo-2-(1,2,3,4-tetrahydroquinolin-1-yl)ethyl]sulfanyl}-N-phenylacetamide]", "values": [{"measurement": "% long compare to B", "result": "−17", "unit": "%"}]}
{"smiles": "NC(=O)c1c(NC(=O)CSc2nnc(C3CC3)n2-c2ccccc2)sc2c1CCC2", "note": "[1-B3, 2-{2-[(5-cyclopropyl-4-phenyl-4H-1,2,4-triazol-3-yl)sulfanyl]acetamido}-4H,5H,6H-cyclopenta[b]thiophene-3-carboxamide]", "values": [{"measurement": "% long compare to B", "result": 90, "unit": "%"}]}
